From ChEMBL document CHEMBL1909046, “DrugMatrix in vitro pharmacology data”

Assays:
[1] = biological target: Sigma non-opioid intracellular receptor 1 (Homo sapiens, UniProt Q99720); test: DRUGMATRIX: Sigma1 radioligand binding (ligand: [3H] Haloperidol); type: cell membranes, Jurkat, Membrane; details: jurkat; Not Active = under 50% inhibition at 10 µM
[2] = biological target: 5-hydroxytryptamine receptor 4 (Cavia porcellus, UniProt O70528); type: cell membranes, Dunkin-Hartley, Striatum, Membrane; further: in other assays of this panel Not Active means under 50% inhibition at 10 µM
Sequence of 5-hydroxytryptamine receptor 4 (O70528 whole entry): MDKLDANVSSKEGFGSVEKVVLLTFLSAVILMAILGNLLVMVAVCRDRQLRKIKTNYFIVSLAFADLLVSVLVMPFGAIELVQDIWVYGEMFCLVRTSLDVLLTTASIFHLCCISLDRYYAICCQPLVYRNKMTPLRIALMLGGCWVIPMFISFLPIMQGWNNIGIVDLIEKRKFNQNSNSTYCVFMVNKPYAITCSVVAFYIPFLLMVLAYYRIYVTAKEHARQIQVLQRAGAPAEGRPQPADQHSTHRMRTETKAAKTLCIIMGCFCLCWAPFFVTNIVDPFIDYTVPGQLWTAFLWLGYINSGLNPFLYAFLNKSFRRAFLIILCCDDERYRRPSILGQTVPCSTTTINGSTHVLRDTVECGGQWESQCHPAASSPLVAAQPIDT

[3] = biological target: T1, Alpha-2A adrenergic receptor (Homo sapiens, UniProt P08913); type: cell membranes, Sf9, Membrane; details: sf9; further: in other assays of this panel Not Active means under 50% inhibition at 10 µM
T1 sequence (P08913 whole entry): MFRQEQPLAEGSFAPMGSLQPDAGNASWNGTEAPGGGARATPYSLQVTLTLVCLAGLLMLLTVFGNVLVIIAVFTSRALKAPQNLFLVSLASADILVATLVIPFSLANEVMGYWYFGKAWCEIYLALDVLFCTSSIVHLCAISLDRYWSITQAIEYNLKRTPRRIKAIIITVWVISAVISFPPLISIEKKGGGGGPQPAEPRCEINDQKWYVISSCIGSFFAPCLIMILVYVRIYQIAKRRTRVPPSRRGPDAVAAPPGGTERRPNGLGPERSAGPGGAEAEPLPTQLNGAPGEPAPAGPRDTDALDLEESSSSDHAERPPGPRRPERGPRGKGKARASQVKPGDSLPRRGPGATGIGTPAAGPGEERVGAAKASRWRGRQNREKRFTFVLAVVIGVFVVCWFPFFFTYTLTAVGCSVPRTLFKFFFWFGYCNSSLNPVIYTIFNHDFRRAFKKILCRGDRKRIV

Cytochrome P450 3A4 = Cytochrome P450 3A4 (Homo sapiens, UniProt P08684); details: bti-tn-5b1-4; further: in other assays of this panel Not Active means under 50% inhibition at 10 µM
Sequence of Cytochrome P450 3A4 (P08684 whole entry): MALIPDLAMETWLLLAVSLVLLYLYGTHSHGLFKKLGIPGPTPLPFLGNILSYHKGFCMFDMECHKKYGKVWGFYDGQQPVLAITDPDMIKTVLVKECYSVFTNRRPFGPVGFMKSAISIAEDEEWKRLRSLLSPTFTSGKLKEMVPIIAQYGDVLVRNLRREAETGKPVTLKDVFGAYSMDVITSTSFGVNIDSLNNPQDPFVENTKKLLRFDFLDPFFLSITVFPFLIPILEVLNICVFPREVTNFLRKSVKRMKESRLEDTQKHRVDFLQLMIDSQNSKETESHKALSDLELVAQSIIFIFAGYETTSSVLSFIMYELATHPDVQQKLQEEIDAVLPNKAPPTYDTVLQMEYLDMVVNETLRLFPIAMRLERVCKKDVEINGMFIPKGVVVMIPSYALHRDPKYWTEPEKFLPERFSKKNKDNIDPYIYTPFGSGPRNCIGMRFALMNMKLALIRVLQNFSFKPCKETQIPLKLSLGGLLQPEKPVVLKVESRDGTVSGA

Cathepsin G = biological target: T2, Cathepsin G (Homo sapiens, UniProt P08311); type: tissue-based; details: neutrophil;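 further: inhibition of Cathepsin G enzyme activity, tested on an AMC-conjugated peptide substrate; in other assays of this panel Not Active means under 50% inhibition at 10 µM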
T2 sequence (P08311 whole entry): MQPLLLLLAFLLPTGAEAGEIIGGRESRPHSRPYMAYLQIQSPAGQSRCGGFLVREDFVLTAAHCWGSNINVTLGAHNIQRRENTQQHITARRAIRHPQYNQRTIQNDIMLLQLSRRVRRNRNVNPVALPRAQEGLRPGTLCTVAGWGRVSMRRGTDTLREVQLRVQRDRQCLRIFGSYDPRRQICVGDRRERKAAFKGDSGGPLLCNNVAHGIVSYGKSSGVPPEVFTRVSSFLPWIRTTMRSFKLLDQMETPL

Melanocortin receptor 3 = Melanocortin receptor 3 (Homo sapiens, UniProt P41968); type: cell membranes, Membrane; details: hek293; further: in other assays of this panel Not Active means under 50% inhibition at 10 µM
Sequence of Melanocortin receptor 3 (P41968 whole entry): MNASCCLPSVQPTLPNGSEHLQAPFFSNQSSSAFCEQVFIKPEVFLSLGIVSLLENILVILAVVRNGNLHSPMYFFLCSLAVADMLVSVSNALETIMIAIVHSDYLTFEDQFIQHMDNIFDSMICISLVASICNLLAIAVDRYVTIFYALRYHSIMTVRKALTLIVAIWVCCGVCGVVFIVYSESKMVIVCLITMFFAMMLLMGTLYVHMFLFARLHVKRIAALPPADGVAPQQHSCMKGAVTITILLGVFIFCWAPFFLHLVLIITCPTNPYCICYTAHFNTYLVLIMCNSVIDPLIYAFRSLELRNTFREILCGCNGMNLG

Sequence of Sigma non-opioid intracellular receptor 1 (Q99720 whole entry): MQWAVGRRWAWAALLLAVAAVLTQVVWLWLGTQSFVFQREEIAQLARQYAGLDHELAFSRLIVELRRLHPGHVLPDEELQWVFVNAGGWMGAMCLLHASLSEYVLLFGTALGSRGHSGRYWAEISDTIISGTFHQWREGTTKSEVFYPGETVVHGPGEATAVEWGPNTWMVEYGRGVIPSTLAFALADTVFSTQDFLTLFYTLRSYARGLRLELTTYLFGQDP

CNC(=C[N+](=O)[O-])NCCSCc1csc(CN(C)C)n1 [NIZATIDINE]
Not Active: IC50 [1] | IC50 [2] | IC50 [3] | IC50 (Cytochrome P450 3A4) | Ki (Cytochrome P450 3A4) | IC50 (Cathepsin G) | IC50 (Melanocortin receptor 3)

C[C@]12C/C(=C/O)C(=O)C[C@@H]1CC[C@@H]1[C@@H]2CC[C@@]2(C)[C@H]1CC[C@]2(C)O [OXYMETHOLONE]
Not Active: IC50 [1] | IC50 [2] | IC50 [3] | IC50 (Cytochrome P450 3A4) | Ki (Cytochrome P450 3A4) | IC50 (Cathepsin G) | IC50 (Melanocortin receptor 3)

CC(C)(CO)C(O)C(=O)NCCCO (configuration not stated) [PANTHENOL]
Not Active: IC50 [1] | IC50 [2] | IC50 [3] | IC50 (Cytochrome P450 3A4) | Ki (Cytochrome P450 3A4) | IC50 (Cathepsin G) | IC50 (Melanocortin receptor 3)

COc1ccc(Cc2nccc3cc(OC)c(OC)cc23)cc1OC [PAPAVERINE]
Not Active: IC50 [1] | IC50 [2] | IC50 [3] | IC50 (Cytochrome P450 3A4) | Ki (Cytochrome P450 3A4) | IC50 (Cathepsin G) | IC50 (Melanocortin receptor 3)

CCCCC1C(=O)N(c2ccccc2)N(c2ccccc2)C1=O [PHENYLBUTAZONE]
Not Active: IC50 [1] | IC50 [2] | IC50 [3] | IC50 (Cytochrome P450 3A4) | Ki (Cytochrome P450 3A4) | IC50 (Cathepsin G) | IC50 (Melanocortin receptor 3)

Cc1cccc(Nc2cc(Cl)nc(SCC(=O)O)n2)c1C [PIRINIXIC ACID]
Not Active: IC50 [1] | IC50 [2] | IC50 [3] | IC50 (Cytochrome P450 3A4) | Ki (Cytochrome P450 3A4) | IC50 (Cathepsin G) | IC50 (Melanocortin receptor 3)

CC[C@H](C)C(=O)O[C@H]1C[C@H](O)C=C2C=C[C@H](C)[C@H](CC[C@@H](O)C[C@@H](O)CC(=O)O)[C@H]21 [PRAVASTATIN]
Not Active: IC50 [1] | IC50 [2] | IC50 [3] | IC50 (Cytochrome P450 3A4) | Ki (Cytochrome P450 3A4) | IC50 (Cathepsin G) | IC50 (Melanocortin receptor 3)

CC(C)(Sc1cc(C(C)(C)C)c(O)c(C(C)(C)C)c1)Sc1cc(C(C)(C)C)c(O)c(C(C)(C)C)c1 [PROBUCOL]
Not Active: IC50 [1] | IC50 [2] | IC50 [3] | IC50 (Cytochrome P450 3A4) | Ki (Cytochrome P450 3A4) | IC50 (Cathepsin G) | IC50 (Melanocortin receptor 3)

COBALT(II) ACETYLACETONATE
Not Active: IC50 [1] | Ki [1] | IC50 [2] | Ki [2] | IC50 [3] | Ki [3] | IC50 (Cytochrome P450 3A4) | Ki (Cytochrome P450 3A4) | IC50 (Cathepsin G) | Ki (Cathepsin G) | IC50 (Melanocortin receptor 3) | Ki (Melanocortin receptor 3)

INSULIN HUMAN
Not Active: IC50 [1] | Ki [1] | IC50 [2] | Ki [2] | IC50 [3] | Ki [3] | IC50 (Cytochrome P450 3A4) | Ki (Cytochrome P450 3A4) | IC50 (Cathepsin G) | Ki (Cathepsin G) | IC50 (Melanocortin receptor 3) | Ki (Melanocortin receptor 3)

POLYVINYL ALCOHOL
Not Active: IC50 [1] | Ki [1] | IC50 [2] | Ki [2] | IC50 [3] | Ki [3] | IC50 (Cytochrome P450 3A4) | Ki (Cytochrome P450 3A4) | IC50 (Cathepsin G) | Ki (Cathepsin G) | IC50 (Melanocortin receptor 3) | Ki (Melanocortin receptor 3)
